Results on 23 molecules are retold here after US20230141603A1, “BENZODIAZEPINE DERIVATIVES AS GABA A GAMMA1 PAM” (Hoffmann-La Roche Inc., priority 2021, published 2023).

This test deals with T1, h-GABAA α2β2γ1 (Homo sapiens, UniProt P47869+Q8N1C3).
T1 sequence (P47869 29-451): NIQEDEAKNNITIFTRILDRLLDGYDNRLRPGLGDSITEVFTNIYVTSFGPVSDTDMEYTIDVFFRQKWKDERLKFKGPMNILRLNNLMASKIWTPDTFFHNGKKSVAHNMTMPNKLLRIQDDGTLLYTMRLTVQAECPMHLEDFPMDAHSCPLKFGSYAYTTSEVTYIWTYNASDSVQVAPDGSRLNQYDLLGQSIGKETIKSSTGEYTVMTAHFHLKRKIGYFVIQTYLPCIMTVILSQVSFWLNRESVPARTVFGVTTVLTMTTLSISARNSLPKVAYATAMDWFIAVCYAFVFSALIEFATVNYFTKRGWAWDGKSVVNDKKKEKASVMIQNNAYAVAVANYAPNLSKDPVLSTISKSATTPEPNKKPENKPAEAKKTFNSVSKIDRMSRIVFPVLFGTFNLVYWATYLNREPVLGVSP
T1 sequence (P47870 25-512 partner limits assumed): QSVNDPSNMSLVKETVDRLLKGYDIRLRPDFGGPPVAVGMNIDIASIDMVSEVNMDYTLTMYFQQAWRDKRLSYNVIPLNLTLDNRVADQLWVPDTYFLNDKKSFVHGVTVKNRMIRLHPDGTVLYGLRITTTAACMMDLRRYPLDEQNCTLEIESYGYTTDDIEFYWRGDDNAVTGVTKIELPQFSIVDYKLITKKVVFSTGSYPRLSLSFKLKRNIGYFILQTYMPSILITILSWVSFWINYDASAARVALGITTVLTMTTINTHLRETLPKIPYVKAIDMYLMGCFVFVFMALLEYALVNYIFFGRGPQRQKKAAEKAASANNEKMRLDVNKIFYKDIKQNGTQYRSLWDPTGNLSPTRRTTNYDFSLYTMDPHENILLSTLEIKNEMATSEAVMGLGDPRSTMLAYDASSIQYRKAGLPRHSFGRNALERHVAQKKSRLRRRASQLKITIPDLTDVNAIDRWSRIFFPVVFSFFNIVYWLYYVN
T1 sequence (Q8N1C3 36-465): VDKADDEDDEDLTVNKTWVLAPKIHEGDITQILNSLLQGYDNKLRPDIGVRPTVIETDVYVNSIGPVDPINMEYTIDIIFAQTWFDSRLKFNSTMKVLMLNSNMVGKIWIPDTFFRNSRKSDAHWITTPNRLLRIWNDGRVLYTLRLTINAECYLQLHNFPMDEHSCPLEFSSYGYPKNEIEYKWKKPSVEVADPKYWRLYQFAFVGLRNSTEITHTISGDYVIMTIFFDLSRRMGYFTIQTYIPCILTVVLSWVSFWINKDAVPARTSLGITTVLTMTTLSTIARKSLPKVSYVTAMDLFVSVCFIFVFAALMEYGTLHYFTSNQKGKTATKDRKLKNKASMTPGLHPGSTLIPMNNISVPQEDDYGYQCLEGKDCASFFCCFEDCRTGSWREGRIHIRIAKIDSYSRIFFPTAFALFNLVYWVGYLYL
The experiment in a line: Radioligand binding assay, [3H]RO7239181 competition, HEK293F membranes. The arrangement: signal peptide of human GABAA α5 subunit (Met1 to Ser31), replacing the α2 signal peptide (N); expressed in transfected cells; host or cells: HEK293F cells (ThermoFisher R79007), membranes.
As for `Fc1cccc(F)c1C1=NCc2nnc(-c3ccncn3)n2-c2ccc(Br)c(Br)c21` [Example 43, 7,8-dibromo-6-(2,6-difluorophenyl)-1-pyrimidin-4-yl-4H-[1,2,4]triazolo[4,3-a][1,4]benzodiazepine], the Ki – broadly, the equilibrium dissociation constant of an inhibitor or competing ligand from its target – worked out at 5.8 nM.
`O=c1[nH]nc2n1-c1ccc(Cl)c(Cl)c1C(c1c(F)cccc1F)=NC2` [Example 9, 7,8-dichloro-6-(2,6-difluorophenyl)-2,4-dihydro-[1,2,4]triazolo[4,3-a][1,4]benzodiazepin-1-one]: the inhibition constant (Ki) was found to be 8 nM.
`Fc1ccccc1C1=NCc2nnc(-c3cccnn3)n2-c2ccc(Br)c(Cl)c21` [Example 3, 8-bromo-7-chloro-6-(2-fluorophenyl)-1-pyridazin-3-yl-4H-[1,2,4]triazolo[4,3-a][1,4]benzodiazepine] returned a Ki of 8.8 nM.
In the case of `Cc1nnc2n1-c1ccc(C3CC3)c(Cl)c1C(c1c(F)cccc1F)=NC2` [Example 6, 7-chloro-8-cyclopropyl-6-(2,6-difluorophenyl)-1-methyl-4H-[1,2,4]triazolo[4,3-a][1,4]benzodiazepine], the inhibition constant Ki was 93.3 nM.
Consider `Fc1cccc(F)c1C1=NCc2nnc(-c3cccnn3)n2-c2ccc(Br)c(Cl)c21` [Example 104, 8-bromo-7-chloro-6-(2,6-difluorophenyl)-1-pyridazin-3-yl-4H-[1,2,4]triazolo[4,3-a][1,4]benzodiazepine], for which the affinity, expressed as Ki, was 2.3 nM.
For `Fc1ccccc1C1=NCc2nnc(-c3ccncn3)n2-c2ccc(Cl)c(Cl)c21` [Example 18, 7,8-dichloro-6-(2-fluorophenyl)-1-pyrimidin-4-yl-4H-[1,2,4]triazolo[4,3-a][1,4]benzodiazepine], the inhibition constant Ki is 21.6 nM.
Regarding `O=c1[nH]nc2n1-c1ccc(Cl)c(Cl)c1C(c1ncccc1F)=NC2` [Example 59, 7,8-dichloro-6-(3-fluoro-2-pyridyl)-2,4-dihydro-[1,2,4]triazolo[4,3-a][1,4]benzodiazepin-1-one], the Ki was found to be 26.3 nM.
Turning to `Cc1ccc2c(c1Cl)C(c1c(F)cccc1F)=NCc1nnc(-c3cccnn3)n1-2` [Example 48, 7-chloro-6-(2,6-difluorophenyl)-8-methyl-1-pyridazin-3-yl-4H-[1,2,4]triazolo[4,3-a][1,4]benzodiazepine], the Ki came to 8.3 nM.
Molecule `OCc1nnc2n1-c1ccc(Br)c(Cl)c1C(c1c(F)cccc1F)=NC2` [Example 33, [8-bromo-7-chloro-6-(2,6-difluorophenyl)-4H-[1,2,4]triazolo[4,3-a][1,4]benzodiazepin-1-yl]methanol] gave a Ki of 12.7 nM.
Molecule `Fc1cccnc1C1=NCc2nnc(-c3ccncn3)n2-c2ccc(C(F)(F)F)c(Cl)c21` [Example 69, 7-chloro-6-(3-fluoro-2-pyridyl)-1-pyrimidin-4-yl-8-(trifluoromethyl)-4H-[1,2,4]triazolo[4,3-a][1,4]benzodiazepine] registered a Ki of 63.6 nM.
Take `Fc1cccc(F)c1C1=NCc2nnc(-c3cccnn3)n2-c2ccc(I)c(Cl)c21` [Example 39, 7-chloro-6-(2,6-difluorophenyl)-8-iodo-1-pyridazin-3-yl-4H-[1,2,4]triazolo[4,3-a][1,4]benzodiazepine]: affinity was put at a Ki of 4.2 nM.
As to `Fc1cccnc1C1=NCc2nnc(C3CC3)n2-c2ccc(Br)c(Cl)c21` [Example 77, 8-bromo-7-chloro-1-cyclopropyl-6-(3-fluoro-2-pyridyl)-4H-[1,2,4]triazolo[4,3-a][1,4]benzodiazepine], the affinity corresponds to a Ki of 19.6 nM.
For `Fc1cccnc1C1=NCc2nnc(-c3ccncn3)n2-c2ccc(Br)c(Cl)c21` [Example 46, 8-bromo-7-chloro-6-(3-fluoro-2-pyridyl)-1-pyrimidin-4-yl-4H-[1,2,4]triazolo[4,3-a][1,4]benzodiazepine], affinity was put at a Ki of 25.3 nM.
In the case of `Cc1nnc2n1-c1ccc(C(F)(F)F)c(Cl)c1C(c1ncccc1F)=NC2` [Example 78, 7-chloro-6-(3-fluoro-2-pyridyl)-1-methyl-8-(trifluoromethyl)-4H-[1,2,4]triazolo[4,3-a][1,4]benzodiazepine], the Ki is 50.8 nM.
The value for `Cn1cc(-c2nnc3n2-c2ccc(C(F)(F)F)c(Cl)c2C(c2ncccc2F)=NC3)cn1` [Example 70, 7-chloro-6-(3-fluoro-2-pyridyl)-1-(1-methylpyrazol-4-yl)-8-(trifluoromethyl)-4H-[1,2,4]triazolo[4,3-a][1,4]benzodiazepine] was 41.4 nM.
Regarding `Cc1nnc2n1-c1ccc(Br)c(Cl)c1C(c1ncccc1F)=NC2` [Example 24, 8-bromo-7-chloro-6-(3-fluoro-2-pyridyl)-1-methyl-4H-[1,2,4]triazolo[4,3-a][1,4]benzodiazepine], the inhibitory constant (Ki) worked out at 24.3 nM.
`Cl.NCc1nnc2n1-c1ccc(Br)c(Cl)c1C(c1c(F)cccc1F)=NC2` [Example 36, [8-bromo-7-chloro-6-(2,6-difluorophenyl)-4H-[1,2,4]triazolo[4,3-a][1,4]benzodiazepin-1-yl]methanamine hydrochloride] registered an inhibition constant Ki of 8.5 nM.
The molecule `Fc1cccc(F)c1C1=NCc2nnc(-c3cccnn3)n2-c2ccc(Br)c(Br)c21` [Example 42, 7,8-dibromo-6-(2,6-difluorophenyl)-1-pyridazin-3-yl-4H-[1,2,4]triazolo[4,3-a][1,4]benzodiazepine] showed an inhibition constant (Ki) of 5.5 nM.
`Fc1cccc(F)c1C1=NCc2nncn2-c2ccc(Cl)c(Cl)c21` [Example 15, 7,8-dichloro-6-(2,6-difluorophenyl)-4H-[1,2,4]triazolo[4,3-a][1,4]benzodiazepine] yielded a Ki of 8.7 nM.
As for `Cc1nnc2n1-c1ccc(Br)c(Cl)c1C(c1c(F)cccc1F)=NC2` [Example 1, 8-bromo-7-chloro-6-(2,6-difluorophenyl)-1-methyl-4H-[1,2,4]triazolo[4,3-a][1,4]benzodiazepine], the inhibition constant Ki came to 8 nM.
`Clc1cccnc1C1=NCc2nnc(-c3ccncn3)n2-c2ccc(Br)c(Cl)c21` [Example 44, 8-bromo-7-chloro-6-(3-chloro-2-pyridyl)-1-pyrimidin-4-yl-4H-[1,2,4]triazolo[4,3-a][1,4]benzodiazepine]: the affinity, expressed as Ki, was 9.6 nM.
Molecule `Fc1cccc(F)c1C1=NCc2nncn2-c2ccc(I)c(Cl)c21` [Example 34, 7-chloro-6-(2,6-difluorophenyl)-8-iodo-4H-[1,2,4]triazolo[4,3-a][1,4]benzodiazepine] displayed an inhibition constant Ki of 10.1 nM.
Turning to `Fc1ccccc1C1=NCc2nnc(-c3cccnn3)n2-c2ccc(Cl)c(Cl)c21` [Example 10, 7,8-dichloro-6-(2-fluorophenyl)-1-pyridazin-3-yl-4H-[1,2,4]triazolo[4,3-a][1,4]benzodiazepine], the Ki is 9.5 nM.
